# Test results reported in patent US20230043672A1, “AROMATIC AMIDO DERIVATIVES AS LPA RECEPTOR 2 INHIBITORS” (CHIESI FARMACEUTICI S.P.A., priority 2019, published 2023).
# Target: T1, human recombinant LPA2 expressed in CHO cells (Homo sapiens, UniProt Q9HBW0)
# T1 construct: expressed in transfected cells; host or cells: CHO cells (CHO-hLPA2 cell line)
# Experiment: FLIPR calcium mobilization assay, LPA2 antagonism in CHO-hLPA2 cells
# Format: cell-based
# Conditions: LPA EC80 stimulation, potency class, read-out: LPA2 IC50
# Procedure: The effectiveness of compounds of the present invention as LPA2 antagonist can be determined at the human recombinant LPA2 expressed in CHO cells, using a FLIPR assay in 384 well format.
# CHO-hLPA2 cell lines are cultured in a humidified incubator at 5% CO2 in DMEM/F-12 (1:1) MIXTURE with 2 mM Glutamax, supplemented with 10% of Foetal Bovine Serum, 1 mM Sodium Pyruvate, 11 mM Hepes and 1× Penicillin/Streptomycin. CHO hLPA2 cells are seeded into black walled clear-bottom 384-well plates (#781091, Greiner Bio-One GmbH) at a density of 7,500 cells per well in 50 μl culture media and grown overnight in a 37° C. humidified CO2-incubator. Serial dilutions (1:3 or 1:4, 11 points CRC) of compounds are performed in 100% DMSO at 200× the final concentration. The compounds are diluted 1:50 prior to the experiment with Assay Buffer (20 mM HEPES, 145 mM NaCl, 5 mM KCl, 5.5 mM glucose, 1 mM MgCl2 and 2 mM CaCl2), pH 7.4 containing 0.01% Pluronic F-127) to obtain a solution corresponding to […] the final concentration in the assay (4×, 2% DMSO). The final concentration of DMSO in the assay will be 0.5% in each well. Medium is removed by aspiration and cells are then incubated with 30 μl of a loading solution containing 5 μM of the cytoplasmic Ca2+ indicator Cal-520 AM in Assay Buffer containing 2.5 mM probenecid for 30 min at 37° C. incubator (cell loading). The loaded cell plates are transferred into the FLIPR instrument and calcium responses are monitored during the on-line addition protocols. For testing of compounds, after the cell loading, 10 μl/well of 4× antagonists' solution was added onto the cells. After 30 min pre-incubation (at 37° C.), 10 μl/well of 5× concentrated LPA EC80 was added and Ca2+ mobilization responses was followed during the on-line addition protocol. Intracellular peak fluorescence values subtracted by baseline fluorescence are exported and analysed to determine IC50 values, respectively. The calcium response is expressed as percentage of the maximal inhibition of the EC80 agonist response.
# The raw data obtained in unstimulated controls (DMSO, no LPA) are set as “100% inhibition”, while the raw data obtained in negative controls, i.e. in the absence of compounds and stimulating with LPA EC80, are set as “0% inhibition”.
# The raw data (peak height expressed as relative fluorescence units) are normalized and transformed into “percent of inhibition”. Curve fitting and pIC50 (−Log IC50) estimations are carried out using a four-parameter logistic model using XLfit Software.
# T1 sequence (Q9HBW0 whole entry): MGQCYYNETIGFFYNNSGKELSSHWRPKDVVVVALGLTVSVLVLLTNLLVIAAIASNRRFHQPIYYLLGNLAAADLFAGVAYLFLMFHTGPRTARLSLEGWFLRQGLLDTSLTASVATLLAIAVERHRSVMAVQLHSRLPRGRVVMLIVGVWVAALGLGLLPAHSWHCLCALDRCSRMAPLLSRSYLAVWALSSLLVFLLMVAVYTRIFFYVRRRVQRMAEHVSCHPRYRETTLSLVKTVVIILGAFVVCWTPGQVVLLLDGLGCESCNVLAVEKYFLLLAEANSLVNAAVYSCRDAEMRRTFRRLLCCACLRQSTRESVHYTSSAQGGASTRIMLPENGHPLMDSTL
row,IC50 [nM],Structure (SMILES)
1,10 to 100,"COC(=O)Nc1nc(C)c(S(=O)(=O)N2CCN(C[C@H](C)NC(=O)c3cccc(-c4ccc(C)nc4)c3)CC2)s1 [Example 8, methyl N-[4-methyl-5-({4-[(2S)-2-{[3-(6-methylpyridin-3-yl)phenyl] formamido}propyl]piperazin-1-yl}sulfonyl)-1,3-thiazol-2-yl]carbamate]"
2,< 10,"COC(=O)Nc1nc(C)c(S(=O)(=O)N2CCN(C[C@H](C)NC(=O)c3cccc(-c4sc(C)nc4C)c3)CC2)s1 [Example 1, methyl N-[5-({4-[(2S)-2-{[3-(2,4-dimethyl-1,3-thiazol-5-yl)phenyl]formamido}propyl]piperazin-1-yl}sulfonyl)-4-methyl-1,3-thiazol-2-yl]carbamate]"
3,10 to 100,"Cc1cc(-c2ccc(S(=O)(=O)N3CCN(C[C@H](C)NC(=O)c4cc(-c5sc(C)nc5C)ccc4F)CC3)s2)on1 [Example 2, 5-(2,4-dimethyl-1,3-thiazol-5-yl)-2-fluoro-N-[(2 S)-1-(4-{[5-(3-methyl-1,2-oxazol-5-yl)thiophen-2-yl]sulfonyl}piperazin-1-yl)propan-2-yl]benzamide]"
4,< 1000,"COC(=O)Nc1nc(C)c(S(=O)(=O)N2CCN(C[C@H](C)NC(=O)c3cccc(-c4sc(C)nc4C)n3)CC2)s1 [Example 6, methyl N-[5-({4-[(2S)-2-{[6-(2,4-dimethyl-1,3-thiazol-5-yl)pyridin-2-yl]formamido}propyl]piperazin-1-yl}sulfonyl)-4-methyl-1,3-thiazol-2-yl]carbamate]"
5,< 1000,"COC(=O)Nc1nc(C)c(S(=O)(=O)N2CCN(C[C@H](C)NC(=O)c3cc(-c4sc(C)nc4C)ccn3)CC2)s1 [Example 4, methyl N-[5-({4-[(2S)-2-{[4-(2,4-dimethyl-1,3-thiazol-5-yl)pyridin-2-yl]formamido}propyl]piperazin-1-yl}sulfonyl)-4-methyl-1,3-thiazol-2-yl]carbamate]"
6,10 to 100,"COC(=O)Nc1nc(C)c(S(=O)(=O)N2CCN(C[C@H](C)NC(=O)c3cccc(-c4cccc(CN(C)C)c4)c3)CC2)s1 [Example 7, methyl N-[5-({4-[(2S)-2-({3′-[(dimethylamino)methyl]-[1,1′-biphenyl]-3-yl}formamido)propyl]piperazin-1-yl}sulfonyl)-4-methyl-1,3-thiazol-2-yl]carbamate]"
7,< 1000,"COC(=O)Nc1nc(C)c(S(=O)(=O)N2CCN(C[C@H](C)NC(=O)c3cc(-c4cccc(CN(C)C)c4)cs3)CC2)s1 [Example 10, methyl N-[5-({4-[(2S)-2-[(4-{3-[(dimethylamino)methyl]phenyl}thiophen-2-yl)formamido]propyl]piperazin-1-yl}sulfonyl)-4-methyl-1,3-thiazol-2-yl]carbamate]"
8,< 1000,"COC(=O)Nc1nc(C)c(S(=O)(=O)N2CCN(C[C@H](C)NC(=O)c3cccc(-c4cn(C)nc4C(F)(F)F)c3)CC2)s1 [Example 9, methyl N-[4-methyl-5-({4-[(2S)-2-({3-[1-methyl-3-(trifluoromethyl)-1H-pyrazol-4-yl]phenyl}formamido)propyl]piperazin-1-yl}sulfonyl)-1,3-thiazol-2-yl]carbamate]"
9,< 1000,"Cc1nc(C)c(-c2cccc(C(=O)N[C@@H](C)CN3CCN(S(=O)(=O)c4ccc5[nH]c(=O)sc5c4)CC3)c2)s1 [Example 11, 3-(2,4-dimethyl-1,3-thiazol-5-yl)-N-[(2S)-1-{4-[(2-oxo-2,3-dihydro-1,3-benzothiazol 6-yl)sulfonyl]piperazin-1-yl}propan-2-yl]benzamide]"
10,10 to 100,"COC(=O)Nc1nc(C)c(S(=O)(=O)N2CCN(C[C@H](C)NC(=O)c3cc(-c4sc(C)nc4C)ccc3F)CC2)s1 [Example 5, methyl N-[5-({4-[(2S)-2-{[5-(2,4-dimethyl-1,3-thiazol-5-yl)-2-fluorophenyl]formamido}propyl]piperazin-1-yl}sulfonyl)-4-methyl-1,3-thiazol-2-yl]carbamate]"
11,10 to 100,"Cc1cc(-c2ccc(S(=O)(=O)N3CCN(C[C@H](C)NC(=O)c4cc(-c5sc(C)nc5C)ccn4)CC3)s2)on1 [Example 3, 4-(2,4-dimethyl-1,3-thiazol-5-yl)-N-[(2S)-1-(4-{[5-(3-methyl-1,2-oxazol-5-yl)thiophen-2-yl]sulfonyl}piperazin-1-yl)propan-2-yl]pyridine-2-carboxamide]"

# Same assay, conditions: compound called inactive on receptor LPA2, read-out: IC50 on LPA2 receptor
row,IC50 [nM],Structure (SMILES)
1,> 3000,"COC(=O)Nc1nc(C)c(S(=O)(=O)N2CCN(C[C@H](C)Nc3ncnc4ncccc34)CC2)s1 [Comparative Example A, Methyl (S)-(4-methyl-5-((4-(2-(pyrido[2,3-d]pyrimidin-4 ylamino)propyl)piperazin-1-yl)sulfonyl)thiazol-2-yl)carbamate, reference compound]"
